Measured values reported in US6825185B2, “Substituted aryl compounds as novel cyclooxygenase-2 selective inhibitors, compositions and methods of use” (NitroMed, Inc., priority 2000, dated 2004).

Columns and labels:
[1] = molecular target: COX-1 (Homo sapiens, UniProt P23219); assay: COX-1 enzyme activity in human whole blood (A23187 stimulated, thromboxane B2 EIA); format: cell-based; parameters: Human blood (≈50 mL) from male or female donors who had not received any aspirin or NSAIDs for 14 days; endogenous in cells; host or cells: human whole blood from donors; settings: test compound at 100 μM
COX-1, sequence (P23219 24-599): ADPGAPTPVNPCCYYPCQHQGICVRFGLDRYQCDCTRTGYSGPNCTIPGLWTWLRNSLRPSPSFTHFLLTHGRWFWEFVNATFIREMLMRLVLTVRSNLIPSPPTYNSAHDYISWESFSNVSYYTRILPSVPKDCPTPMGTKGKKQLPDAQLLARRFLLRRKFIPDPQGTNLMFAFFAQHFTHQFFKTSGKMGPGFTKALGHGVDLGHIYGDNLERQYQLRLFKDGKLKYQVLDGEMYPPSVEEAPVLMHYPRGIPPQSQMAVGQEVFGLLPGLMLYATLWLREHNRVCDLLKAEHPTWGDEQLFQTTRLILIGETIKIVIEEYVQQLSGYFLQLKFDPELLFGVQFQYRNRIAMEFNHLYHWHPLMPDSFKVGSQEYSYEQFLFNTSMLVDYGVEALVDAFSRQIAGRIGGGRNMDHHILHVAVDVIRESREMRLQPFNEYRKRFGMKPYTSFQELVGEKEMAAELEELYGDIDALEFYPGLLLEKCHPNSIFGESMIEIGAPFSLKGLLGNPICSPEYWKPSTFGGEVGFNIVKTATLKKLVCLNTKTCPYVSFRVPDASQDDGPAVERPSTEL

[2] = molecular target: T1, COX-2 (Homo sapiens, UniProt P35354); assay: COX-2 enzyme activity in human whole blood (LPS induced, thromboxane B2 EIA); format: cell-based; parameters: Human blood (≈50 mL) from male or female donors who had not received any aspirin or NSAIDs for 14 days; endogenous in cells; host or cells: human whole blood from donors, LPS-induced; settings: test compound at 10 μM
T1 sequence (P35354 18-604): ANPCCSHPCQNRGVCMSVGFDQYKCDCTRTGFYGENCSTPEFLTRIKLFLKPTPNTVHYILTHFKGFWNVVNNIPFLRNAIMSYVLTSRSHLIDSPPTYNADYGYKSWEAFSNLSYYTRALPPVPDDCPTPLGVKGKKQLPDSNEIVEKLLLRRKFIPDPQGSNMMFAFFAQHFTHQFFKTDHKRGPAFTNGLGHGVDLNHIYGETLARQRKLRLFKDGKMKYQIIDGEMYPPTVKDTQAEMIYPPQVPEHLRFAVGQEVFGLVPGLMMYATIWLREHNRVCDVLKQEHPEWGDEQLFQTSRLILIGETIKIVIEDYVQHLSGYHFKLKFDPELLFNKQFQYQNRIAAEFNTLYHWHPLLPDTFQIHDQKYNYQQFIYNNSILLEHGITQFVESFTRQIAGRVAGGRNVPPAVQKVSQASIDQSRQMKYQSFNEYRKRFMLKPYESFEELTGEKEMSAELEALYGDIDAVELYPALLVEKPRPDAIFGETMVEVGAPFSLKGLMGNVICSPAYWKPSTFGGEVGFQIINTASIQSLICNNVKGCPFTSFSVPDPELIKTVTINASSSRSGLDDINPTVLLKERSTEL

| melting point | inhibition at 100 µM [1] | inhibition at 10 µM [2] | Compound |
| --- | --- | --- | --- |
| 83 °C | 55% | 90% | CS(=O)(=O)c1ccc(-c2ccccc2C=C2CCCCC2)cc1 [Example 24e, 1-(2-(Cyclohexylidenemethyl)phenyl)-4-(methylsulfonyl)benzene] |
| 105 to 106 °C | 40% | 40% | CS(=O)(=O)c1ccc(-c2ccccc2C(=O)c2cccc(F)c2)cc1 [Example 25c, 3-Fluorophenyl 2-(4-(methylsulfonyl)phenyl)phenyl ketone] |
| 97 to 98 °C | 25% | 10% | CS(=O)(=O)c1ccc(-c2ccccc2Cc2cccc(F)c2)cc1 [Example 26, 1-(2-((3-Fluorophenyl)methyl)phenyl)-4-(methylsulfonyl)benzene] |
